# Assay results as given in the NIST ThermoML archive (doi:10.1016/j.jct.2007.11.002).
# Numbers after ± are expanded uncertainties.
# Conditions: 101.33 kPa, Liquid; for viscosity: Capillary tube (Ostwald / Ubbelohde) method; for mass density: Vibrating tube method
SMILES,viscosity (298.15 K) [mPa·s],mass density (298.15 K) [kg/m3],viscosity (303.15 K) [mPa·s],mass density (303.15 K) [kg/m3],viscosity (313.15 K) [mPa·s],mass density (313.15 K) [kg/m3],viscosity (323.15 K) [mPa·s],mass density (323.15 K) [kg/m3]
CN1CCOCC1 [N-methylmorpholine],0.881 ± 0.012,914.06 ± 0.74,0.864 ± 0.012,909.44 ± 0.73,0.833 ± 0.011,899.76 ± 0.72,0.814 ± 0.011,890.85 ± 0.71
c1ccccc1 [benzene],0.601 ± 0.007,873.58 ± 0.09,0.563 ± 0.007,868.23 ± 0.09,0.494 ± 0.007,857.38 ± 0.1,0.436 ± 0.007,846.62 ± 0.1
C1CCCCC1 [cyclohexane],0.904 ± 0.009,773.25 ± 0.24,0.809 ± 0.009,769.18 ± 0.24,0.698 ± 0.008,759.58 ± 0.24,0.604 ± 0.008,750.03 ± 0.24
Cc1ccccc1 [toluene],0.553 ± 0.007,862.11 ± 0.23,0.523 ± 0.007,857.62 ± 0.23,0.471 ± 0.007,847.87 ± 0.25,0.422 ± 0.007,838.42 ± 0.29
